Test results: PubChem BioAssay (NCI)
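Grown in 96-well plates, cells were treated for 48 hours with each compound at five concentrations. Insufficient inhibition: endpoint recorded as highest concentration tested. TGI is the concentration that stops growth completely.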

Tests used:
Assay in all cases: DTP human tumour cell line panel, 48 h
786-0 renal = tested on: 786-0 renal
A498 renal = tested on: A498 renal
A549 NSCLC = tested on: A549 NSCLC
ACHN renal = tested on: ACHN renal
BT-549 breast = tested on: BT-549 breast
CAKI-1 renal = tested on: CAKI-1 renal
CCRF-CEM leukemia = tested on: CCRF-CEM leukemia
COLO 205 colon = tested on: COLO 205 colon
DU-145 prostate = tested on: DU-145 prostate
EKVX NSCLC = tested on: EKVX NSCLC
HCC-2998 colon = tested on: HCC-2998 colon
HCT-116 colon = tested on: HCT-116 colon
HCT-15 colon = tested on: HCT-15 colon
HL-60(TB) leukemia = tested on: HL-60(TB) leukemia
HOP-62 NSCLC = tested on: HOP-62 NSCLC
HOP-92 NSCLC = tested on: HOP-92 NSCLC
HS 578T breast = tested on: HS 578T breast
HT29 colon = tested on: HT29 colon
IGROV1 ovarian = tested on: IGROV1 ovarian
K-562 leukemia = tested on: K-562 leukemia
KM12 colon = tested on: KM12 colon
LOX IMVI melanoma = tested on: LOX IMVI melanoma
M14 melanoma = tested on: M14 melanoma
MALME-3M melanoma = tested on: MALME-3M melanoma
MCF7 breast = tested on: MCF7 breast
MDA-MB-231 breast = tested on: MDA-MB-231 breast
MDA-MB-435 = tested on: MDA-MB-435
MDA-N = tested on: MDA-N
MOLT-4 leukemia = tested on: MOLT-4 leukemia
NCI-H226 lung = tested on: NCI-H226 lung
NCI-H23 lung = tested on: NCI-H23 lung
NCI-H460 lung = tested on: NCI-H460 lung
NCI-H522 lung = tested on: NCI-H522 lung
NCI/ADR-RES ovarian = tested on: NCI/ADR-RES ovarian
OVCAR-3 ovarian = tested on: OVCAR-3 ovarian
OVCAR-4 ovarian = tested on: OVCAR-4 ovarian
OVCAR-5 ovarian = tested on: OVCAR-5 ovarian
OVCAR-8 ovarian = tested on: OVCAR-8 ovarian
PC-3 prostate = tested on: PC-3 prostate
RPMI-8226 leukemia = tested on: RPMI-8226 leukemia
RXF 393 renal = tested on: RXF 393 renal
SF-268 CNS = tested on: SF-268 CNS
SF-295 CNS = tested on: SF-295 CNS
SF-539 CNS = tested on: SF-539 CNS
SK-MEL-2 melanoma = tested on: SK-MEL-2 melanoma
SK-MEL-28 melanoma = tested on: SK-MEL-28 melanoma
SK-MEL-5 melanoma = tested on: SK-MEL-5 melanoma
SK-OV-3 ovarian = tested on: SK-OV-3 ovarian
SN12C renal = tested on: SN12C renal
SNB-19 CNS = tested on: SNB-19 CNS
SNB-75 CNS = tested on: SNB-75 CNS
SR leukemia = tested on: SR leukemia
SW-620 colon = tested on: SW-620 colon
T-47D breast = tested on: T-47D breast
TK-10 renal = tested on: TK-10 renal
U251 CNS = tested on: U251 CNS
UACC-257 melanoma = tested on: UACC-257 melanoma
UACC-62 melanoma = tested on: UACC-62 melanoma
UO-31 renal = tested on: UO-31 renal
KM20L2 colon = tested on: KM20L2 colon
LXFL 529 NSCLC = tested on: LXFL 529 NSCLC
SNB-78 CNS = tested on: SNB-78 CNS

For `O=[N+]([O-])c1ccc(N/N=C/c2ccc(OCCCCCCCCCCCO)cc2)c([N+](=O)[O-])c1`, the TGI (786-0 renal) was 4 µM, the TGI (A498 renal) was > 100 µM and the TGI (A549 NSCLC) was > 38.9 µM. The TGI (ACHN renal) was > 71.7 µM, the TGI (BT-549 breast) was 15.5 µM and the TGI (CAKI-1 renal) was 8.94 µM. For the same compound, the TGI (CCRF-CEM leukemia) was > 44.5 µM, the TGI (COLO 205 colon) was 6.24 µM and the TGI (DU-145 prostate) was > 95.9 µM. The TGI (EKVX NSCLC) was 52.1 µM, the TGI (HCC-2998 colon) was 76.6 µM and the TGI (HCT-116 colon) was > 43.7 µM. The TGI (HCT-15 colon) was > 100 µM, the TGI (HL-60(TB) leukemia) was 31.2 µM and the TGI (HOP-62 NSCLC) was 19.6 µM. For the same compound, the TGI (HOP-92 NSCLC) was 14.6 µM, the TGI (HS 578T breast) was 6.5 µM and the TGI (HT29 colon) was > 100 µM. For the same compound, the TGI (IGROV1 ovarian) was 67.4 µM, the TGI (K-562 leukemia) was 2.97 µM and the TGI (KM12 colon) was 7.84 µM. It also gave a TGI (LOX IMVI melanoma) of 59.7 µM, a TGI (M14 melanoma) of 3.22 µM and a TGI (MALME-3M melanoma) of 4.61 µM. For the same compound, the TGI (MCF7 breast) was > 93.6 µM, the TGI (MDA-MB-231 breast) was > 94.7 µM and the TGI (MDA-MB-435) was 11.7 µM. For the same compound, the TGI (MDA-N) was 13 µM, the TGI (MOLT-4 leukemia) was > 100 µM and the TGI (NCI-H226 lung) was 37.3 µM. For the same compound, the TGI (NCI-H23 lung) was 45.8 µM, the TGI (NCI-H460 lung) was 12.1 µM and the TGI (NCI-H522 lung) was 9.44 µM. The TGI (NCI/ADR-RES ovarian) was 9.51 µM, the TGI (OVCAR-3 ovarian) was > 100 µM and the TGI (OVCAR-4 ovarian) was 13.7 µM. The TGI (OVCAR-5 ovarian) was > 56.1 µM, the TGI (OVCAR-8 ovarian) was 9.86 µM and the TGI (PC-3 prostate) was 14.7 µM. The TGI (RPMI-8226 leukemia) was > 100 µM, the TGI (RXF 393 renal) was 4.6 µM and the TGI (SF-268 CNS) was 7.62 µM. The TGI (SF-295 CNS) was 9.6 µM, the TGI (SF-539 CNS) was 4.22 µM and the TGI (SK-MEL-2 melanoma) was 56.1 µM. It also gave a TGI (SK-MEL-28 melanoma) of 32.5 µM, a TGI (SK-MEL-5 melanoma) of 4.66 µM and a TGI (SK-OV-3 ovarian) of 11.6 µM. For the same compound, the TGI (SN12C renal) was 14.3 µM, the TGI (SNB-19 CNS) was 27.1 µM and the TGI (SNB-75 CNS) was 4.27 µM. For the same compound, the TGI (SR leukemia) was 8.94 µM, the TGI (SW-620 colon) was > 100 µM and the TGI (T-47D breast) was > 100 µM. For the same compound, the TGI (TK-10 renal) was 33.7 µM, the TGI (U251 CNS) was 10.7 µM and the TGI (UACC-257 melanoma) was 15.2 µM. It also gave a TGI (UACC-62 melanoma) of 7.74 µM and a TGI (UO-31 renal) of 36.1 µM.
Compound `O=C(Nc1ccc([N+](=O)[O-])cc1Cl)c1cccc([N+](=O)[O-])c1O` has a TGI (A498 renal) of 3.66 µM, a TGI (A549 NSCLC) of 7.31 µM and a TGI (ACHN renal) of 48.1 µM. The TGI (CAKI-1 renal) was 5.21 µM, the TGI (CCRF-CEM leukemia) was > 100 µM and the TGI (EKVX NSCLC) was 6.54 µM. The TGI (HCC-2998 colon) was 20.9 µM, the TGI (HL-60(TB) leukemia) was 5.43 µM and the TGI (HT29 colon) was 79.7 µM. It also gave a TGI (K-562 leukemia) of 12.5 µM, a TGI (KM12 colon) of 15.3 µM and a TGI (KM20L2 colon) of 10.2 µM. For the same compound, the TGI (LOX IMVI melanoma) was 14.5 µM, the TGI (LXFL 529 NSCLC) was 13.6 µM and the TGI (MALME-3M melanoma) was 4.73 µM. The TGI (MOLT-4 leukemia) was 28.3 µM, the TGI (NCI-H226 lung) was 9.31 µM and the TGI (NCI-H23 lung) was 4.01 µM. It also gave a TGI (NCI-H460 lung) of 13.3 µM, a TGI (NCI-H522 lung) of 4.32 µM and a TGI (OVCAR-4 ovarian) of 45.3 µM. For the same compound, the TGI (OVCAR-5 ovarian) was > 100 µM, the TGI (RPMI-8226 leukemia) was 5.78 µM and the TGI (SF-268 CNS) was 27.3 µM. For the same compound, the TGI (SF-295 CNS) was 6.26 µM, the TGI (SF-539 CNS) was 10.9 µM and the TGI (SK-MEL-2 melanoma) was 6.1 µM. The TGI (SK-MEL-28 melanoma) was 19.4 µM, the TGI (SN12C renal) was 8.09 µM and the TGI (SNB-19 CNS) was > 100 µM. The TGI (SNB-78 CNS) was 9.75 µM, the TGI (SR leukemia) was 18.9 µM and the TGI (SW-620 colon) was > 100 µM. The TGI (U251 CNS) was > 100 µM, the TGI (UACC-257 melanoma) was 6.95 µM and the TGI (UO-31 renal) was 5.58 µM.
